# Results from ChEMBL document CHEMBL1137376 (J Med Chem, 2006).
# Active and inactive are the calls of the source. No cut-off for these calls is given here. Non-standard residues stand in square brackets, D forms with d. Residues, ends and D or L forms follow the SMILES beside them. Phe(4-NH2) = Nc1ccc(C[C@H](N)C(=O)O)cc1
# Key:
# [1] = molecular target: T1, Angiotensin II receptor (AT-1) type-1 (Rattus norvegicus, UniProt P29089+P25095); test: Displacement of [125I]Ang2 from AT1 receptor in rat liver membrane; assay type: cell membranes
# T1 sequence (P29089 whole entry): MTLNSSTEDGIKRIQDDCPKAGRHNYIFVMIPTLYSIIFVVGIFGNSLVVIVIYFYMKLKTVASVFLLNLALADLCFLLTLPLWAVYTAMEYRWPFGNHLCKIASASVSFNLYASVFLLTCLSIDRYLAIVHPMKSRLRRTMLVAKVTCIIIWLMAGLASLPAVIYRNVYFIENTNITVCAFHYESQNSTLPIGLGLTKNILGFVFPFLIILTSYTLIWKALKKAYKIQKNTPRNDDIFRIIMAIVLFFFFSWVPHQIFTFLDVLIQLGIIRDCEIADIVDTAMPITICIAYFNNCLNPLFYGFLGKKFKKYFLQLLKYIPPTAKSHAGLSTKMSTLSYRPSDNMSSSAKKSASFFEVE
# T1 sequence (P25095 whole entry): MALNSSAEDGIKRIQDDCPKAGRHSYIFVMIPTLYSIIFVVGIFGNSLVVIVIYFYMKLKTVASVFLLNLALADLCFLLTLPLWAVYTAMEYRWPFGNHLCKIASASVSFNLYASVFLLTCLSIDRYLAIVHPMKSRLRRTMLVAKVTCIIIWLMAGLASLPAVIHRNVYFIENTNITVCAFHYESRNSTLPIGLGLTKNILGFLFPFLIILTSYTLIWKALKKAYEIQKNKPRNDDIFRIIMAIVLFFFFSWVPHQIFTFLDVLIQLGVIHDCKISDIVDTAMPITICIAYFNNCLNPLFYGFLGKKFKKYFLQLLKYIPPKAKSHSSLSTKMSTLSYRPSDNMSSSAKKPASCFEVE
# [2] = molecular target: T2, Type-1 angiotensin II receptor (Oryctolagus cuniculus) (UniProt P34976); test: Agonist activity at AT1 receptor measured as contraction of rabbit thoracic aorta at 3.0 nM to 3.0 uM; assay type: functional, tissue-based
# T2 sequence (whole entry): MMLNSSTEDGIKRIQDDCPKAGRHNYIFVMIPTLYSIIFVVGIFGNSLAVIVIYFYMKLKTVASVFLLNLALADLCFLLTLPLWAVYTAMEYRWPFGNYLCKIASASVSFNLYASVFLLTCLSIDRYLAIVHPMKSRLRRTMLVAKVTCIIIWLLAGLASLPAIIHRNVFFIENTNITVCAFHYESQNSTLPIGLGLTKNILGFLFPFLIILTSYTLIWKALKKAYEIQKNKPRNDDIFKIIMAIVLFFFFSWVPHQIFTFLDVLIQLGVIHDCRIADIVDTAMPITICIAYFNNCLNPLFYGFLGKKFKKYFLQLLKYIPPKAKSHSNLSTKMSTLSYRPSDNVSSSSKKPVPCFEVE
Ki [1] [nM],Activity [2],SMILES
14.9,inactive,CC[C@H](C)[C@@H]1Nc2c(Cc3ccc(O)cc3)cc(NC(=O)[C@@H](NC(=O)[C@H](CCCN=C(N)N)NC(=O)[C@@H](N)CC(=O)O)C(C)C)cc2CN(CC(=O)N[C@@H](Cc2c[nH]cn2)C(=O)N2CCC[C@H]2C(=O)N[C@@H](Cc2ccccc2)C(=O)O)C1=O
1668,,CC[C@H](C)[C@@H]1Nc2c(Cc3ccc(O)cc3)cc(NC(=O)[C@H](CCCN=C(N)N)NC(=O)[C@@H](N)CC(=O)O)cc2CN(CC(=O)N[C@@H](Cc2c[nH]cn2)C(=O)N2CCC[C@H]2C(=O)N[C@@H](Cc2ccccc2)C(=O)O)C1=O
> 10000,,CC[C@H](C)[C@H](NC(=O)[C@H](Cc1ccc(O)cc1)NC(=O)[C@@H](NC(=O)[C@H](CCCN=C(N)N)NC(=O)[C@@H](N)CC(=O)O)C(C)C)C(=O)N[C@@H](Cc1ccc(N)cc1)C(=O)N1CCC[C@H]1C(=O)N[C@@H](Cc1ccccc1)C(=O)O (H-DRVYI[Phe(4-NH2)]PF-OH)
2108,,CC[C@H](C)[C@@H]1Nc2c(Cc3ccc(O)cc3)cc(NC(=O)[C@H](CCCN=C(N)N)NC(=O)[C@@H](N)CC(=O)O)cc2CN(CC(=O)N2CCC[C@H]2C(=O)N[C@@H](Cc2ccccc2)C(=O)O)C1=O
